Earlier results as cited in patent US20240192198A1, “BIOMIMETIC LIPOSOMES AND METHODS OF MAKING AND USING THE SAME” (Worcester Polytechnic Institute, priority 2022, published 2024).

Details: hydrophobicity; obtained from the National Library of Medicine, PubChem Database

logP: −2.5
SMILES: Nc1nc2ncc(CNc3ccc(C(=O)N[C@@H](CCC(=O)O)C(=O)O)cc3)nc2c(=O)[nH]1 [Folic acid]
